Test results from US20110135739A1, “Oral Formulations of a Hedgehog Pathway Inhibitor” (priority 2009, published 2011).

What was measured:
[1] = Early dissolution experiments / dissolution attempted in various aqueous media; assay type: physicochemical
From the text: Gel formation is problematic from a formulation standpoint because it can result, for example, in irregular release of IPI-926 in vivo. Low rates of dissolution, and subsequent gel formation, persist even when small particle sizes (e.g., less than 150 micrometers) of IPI-926 are employed.
Without wishing to be bound to any particular theory, it was hypothesized that IPI-926 formed the solid agglomerate upon hydration. Accordingly, direct blend formulations were investigated.

[2] = system: human cell lines derived from patients with pancreatic cancer, medulloblastoma, lung cancer, multiple myeloma, acute lymphocytic leukemia, myelodysplatic …; settings: described in WO 2008083252 and WO 2008083248; cited from earlier work
[3] = system: preclinical in vivo models, such as medulloblastoma, small cell lung cancer, non-small cell lung cancer, skin cancer, head and neck cancer, and ovarian cancer; settings: a number of preclinical in vivo models; cited from earlier work
Hedgehog pathway = settings: after single administration; cited from earlier work

CC1=C2C[C@H]3[C@@H](CC[C@@H]4C[C@H](NS(C)(=O)=O)CC[C@@]43C)[C@@H]2CC[C@@]2(C1)O[C@@H]1C[C@H](C)CN[C@H]1[C@H]2C.Cl [IPI-926]
behaviour when dissolution is attempted [1]: gel, rather than dissolve | in vitro growth of human cell lines [2]: inhibit in vitro growth | tumor growth inhibition [3]: tumor growth inhibition | Hedgehog pathway inhibition in stromal cells (Hedgehog pathway): rapid and sustained Hedgehog pathway inhibition
